# Experimental data published in PubChem BioAssay (NCI).
#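 Briefly, cells in 96-well plates were exposed to five compound concentrations for 48 h, and endpoints were estimated by linear interpolation. GI50 = concentration required for 50% inhibition of growth. At the TGI there is no net growth.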
# Tests used:
# Experiment in all cases: DTP human tumour cell line panel, 48 h
# OVCAR-8 ovarian = system: OVCAR-8 ovarian
# OVCAR-4 ovarian = system: OVCAR-4 ovarian
# HCT-15 colon = system: HCT-15 colon
# HOP-92 NSCLC = system: HOP-92 NSCLC
# MDA-MB-435 = system: MDA-MB-435
# SK-MEL-28 melanoma = system: SK-MEL-28 melanoma
# ACHN renal = system: ACHN renal
# K-562 leukemia = system: K-562 leukemia
# SR leukemia = system: SR leukemia
# HCC-2998 colon = system: HCC-2998 colon
# OVCAR-5 ovarian = system: OVCAR-5 ovarian
# NCI-H23 lung = system: NCI-H23 lung
# MOLT-4 leukemia = system: MOLT-4 leukemia
# SF-539 CNS = system: SF-539 CNS
# SF-295 CNS = system: SF-295 CNS
# A549 NSCLC = system: A549 NSCLC
# NCI/ADR-RES ovarian = system: NCI/ADR-RES ovarian
# HOP-62 NSCLC = system: HOP-62 NSCLC
# TK-10 renal = system: TK-10 renal
# SF-268 CNS = system: SF-268 CNS
# EKVX NSCLC = system: EKVX NSCLC
# PC-3 prostate = system: PC-3 prostate
# DU-145 prostate = system: DU-145 prostate
# T-47D breast = system: T-47D breast
# MCF7 breast = system: MCF7 breast
# HL-60(TB) leukemia = system: HL-60(TB) leukemia
# NCI-H460 lung = system: NCI-H460 lung
# U251 CNS = system: U251 CNS
# OVCAR-3 ovarian = system: OVCAR-3 ovarian
# UACC-257 melanoma = system: UACC-257 melanoma
# UO-31 renal = system: UO-31 renal
# LOX IMVI melanoma = system: LOX IMVI melanoma
# SK-MEL-5 melanoma = system: SK-MEL-5 melanoma
# SK-MEL-2 melanoma = system: SK-MEL-2 melanoma
# RXF 393 renal = system: RXF 393 renal
# HS 578T breast = system: HS 578T breast
# SNB-19 CNS = system: SNB-19 CNS
# A498 renal = system: A498 renal
# SN12C renal = system: SN12C renal
# KM12 colon = system: KM12 colon
# COLO 205 colon = system: COLO 205 colon
# M14 melanoma = system: M14 melanoma
# 786-0 renal = system: 786-0 renal
# SNB-75 CNS = system: SNB-75 CNS
# MALME-3M melanoma = system: MALME-3M melanoma
# HT29 colon = system: HT29 colon
# SW-620 colon = system: SW-620 colon
# SK-OV-3 ovarian = system: SK-OV-3 ovarian
# IGROV1 ovarian = system: IGROV1 ovarian
# MDA-MB-231 breast = system: MDA-MB-231 breast
# NCI-H522 lung = system: NCI-H522 lung
# UACC-62 melanoma = system: UACC-62 melanoma
# CCRF-CEM leukemia = system: CCRF-CEM leukemia
smiles,measurement,setting,value
COC(=O)CCc1n(Cc2ccc3ccccc3c2)c2ccccc2[n+]1Cc1ccc2ccccc2c1,GI50,OVCAR-8 ovarian,1270 nM
same,TGI,OVCAR-8 ovarian,3020 nM
same,GI50,OVCAR-4 ovarian,315 nM
same,TGI,OVCAR-4 ovarian,1890 nM
same,GI50,HCT-15 colon,2710 nM
same,TGI,HCT-15 colon,8080 nM
same,GI50,HOP-92 NSCLC,152 nM
same,TGI,HOP-92 NSCLC,1120 nM
same,GI50,MDA-MB-435,462 nM
same,TGI,MDA-MB-435,1800 nM
same,GI50,SK-MEL-28 melanoma,800 nM
same,TGI,SK-MEL-28 melanoma,2460 nM
same,GI50,ACHN renal,3710 nM
same,TGI,ACHN renal,13100 nM
same,GI50,K-562 leukemia,379 nM
same,TGI,K-562 leukemia,1630 nM
same,GI50,SR leukemia,403 nM
same,TGI,SR leukemia,2050 nM
same,GI50,HCC-2998 colon,910 nM
same,TGI,HCC-2998 colon,2430 nM
same,GI50,OVCAR-5 ovarian,1180 nM
same,TGI,OVCAR-5 ovarian,2770 nM
same,GI50,NCI-H23 lung,583 nM
same,TGI,NCI-H23 lung,2560 nM
same,GI50,MOLT-4 leukemia,1130 nM
same,TGI,MOLT-4 leukemia,2980 nM
same,GI50,SF-539 CNS,1070 nM
same,TGI,SF-539 CNS,2450 nM
same,GI50,SF-295 CNS,1320 nM
same,TGI,SF-295 CNS,2860 nM
same,GI50,A549 NSCLC,2920 nM
same,TGI,A549 NSCLC,11900 nM
same,GI50,NCI/ADR-RES ovarian,18700 nM
same,TGI,NCI/ADR-RES ovarian,65100 nM
same,GI50,HOP-62 NSCLC,1660 nM
same,TGI,HOP-62 NSCLC,3460 nM
same,GI50,TK-10 renal,1490 nM
same,TGI,TK-10 renal,2960 nM
same,GI50,SF-268 CNS,1380 nM
same,TGI,SF-268 CNS,2990 nM
same,GI50,EKVX NSCLC,1630 nM
same,TGI,EKVX NSCLC,5630 nM
same,GI50,PC-3 prostate,402 nM
same,TGI,PC-3 prostate,1740 nM
same,GI50,DU-145 prostate,1450 nM
same,TGI,DU-145 prostate,3340 nM
same,GI50,T-47D breast,222 nM
same,TGI,T-47D breast,2650 nM
same,GI50,MCF7 breast,795 nM
same,TGI,MCF7 breast,2340 nM
same,GI50,HL-60(TB) leukemia,207 nM
same,TGI,HL-60(TB) leukemia,799 nM
same,GI50,NCI-H460 lung,1180 nM
same,TGI,NCI-H460 lung,2700 nM
same,GI50,U251 CNS,1040 nM
same,TGI,U251 CNS,2300 nM
same,GI50,OVCAR-3 ovarian,682 nM
same,TGI,OVCAR-3 ovarian,2150 nM
same,GI50,UACC-257 melanoma,549 nM
same,TGI,UACC-257 melanoma,2370 nM
same,GI50,UO-31 renal,2250 nM
same,TGI,UO-31 renal,10200 nM
same,GI50,LOX IMVI melanoma,557 nM
same,TGI,LOX IMVI melanoma,1930 nM
same,GI50,SK-MEL-5 melanoma,415 nM
same,TGI,SK-MEL-5 melanoma,1560 nM
same,GI50,SK-MEL-2 melanoma,1230 nM
same,TGI,SK-MEL-2 melanoma,2720 nM
same,GI50,RXF 393 renal,874 nM
same,TGI,RXF 393 renal,2230 nM
same,GI50,HS 578T breast,1430 nM
same,TGI,HS 578T breast,3470 nM
same,GI50,SNB-19 CNS,582 nM
same,TGI,SNB-19 CNS,1980 nM
same,GI50,A498 renal,1530 nM
same,TGI,A498 renal,3450 nM
same,GI50,SN12C renal,833 nM
same,TGI,SN12C renal,2190 nM
same,GI50,KM12 colon,685 nM
same,TGI,KM12 colon,2120 nM
same,GI50,COLO 205 colon,614 nM
same,TGI,COLO 205 colon,2210 nM
same,GI50,M14 melanoma,524 nM
same,TGI,M14 melanoma,2040 nM
same,GI50,786-0 renal,1140 nM
same,TGI,786-0 renal,2450 nM
same,GI50,SNB-75 CNS,930 nM
same,TGI,SNB-75 CNS,2260 nM
same,GI50,MALME-3M melanoma,1050 nM
same,TGI,MALME-3M melanoma,2630 nM
same,GI50,HT29 colon,571 nM
same,TGI,HT29 colon,1970 nM
same,GI50,SW-620 colon,1270 nM
same,TGI,SW-620 colon,2850 nM
same,GI50,SK-OV-3 ovarian,1890 nM
same,TGI,SK-OV-3 ovarian,4850 nM
same,GI50,IGROV1 ovarian,441 nM
same,TGI,IGROV1 ovarian,1900 nM
same,GI50,MDA-MB-231 breast,682 nM
same,TGI,MDA-MB-231 breast,2190 nM
same,GI50,NCI-H522 lung,440 nM
same,TGI,NCI-H522 lung,1770 nM
same,GI50,UACC-62 melanoma,361 nM
same,TGI,UACC-62 melanoma,1590 nM
CCCc1cn2c(/C=N/N=C(N)N)c(-c3cc([N+](=O)[O-])c(Cl)cc3Cl)nc2s1,TGI,OVCAR-4 ovarian,2830 nM
same,TGI,HCT-15 colon,3020 nM
same,TGI,ACHN renal,3160 nM
same,TGI,K-562 leukemia,2490 nM
same,TGI,SR leukemia,2920 nM
same,TGI,OVCAR-5 ovarian,3120 nM
same,TGI,MOLT-4 leukemia,873 nM
same,TGI,NCI/ADR-RES ovarian,4310 nM
same,TGI,TK-10 renal,2330 nM
same,TGI,DU-145 prostate,3530 nM
same,TGI,A498 renal,2880 nM
same,TGI,SN12C renal,3160 nM
same,TGI,SNB-75 CNS,3070 nM
same,TGI,HT29 colon,2460 nM
same,TGI,CCRF-CEM leukemia,860 nM
same,TGI,SW-620 colon,2970 nM
same,TGI,UACC-62 melanoma,3150 nM
